What was measured:
[1] = Volatilization on flashbar and HPLC purity analysis of the condensation aerosol; format: physicochemical; settings: heated to about 400° C. within about 200 ms, 15 L/min air
From the text: Purity of a diuretic containing aerosol may be determined using a number of different methods. It should be noted that when the term “purity” is used, it refers to the percentage of aerosol minus the percent byproduct produced in its formation. Byproducts for example, are those unwanted products produced during vaporization. For example, byproducts include thermal degradation products as well as any unwanted metabolites of the active compound or compounds. Examples of suitable methods for determining aerosol purity are described in Sekine et al., Journal of Forensic Science 32:1271-1280 (1987) and in Martin et al., Journal of Analytic Toxicology 13:158-162 (1989).
One suitable method involves the use of a trap. In this method, the aerosol is collected in a trap in order to determine the percent or fraction of byproduct. Any suitable trap may be used. Suitable traps include filters, glass wool, impingers, solvent traps, cold traps, and the like. Filters are often most desirable. The trap is then typically extracted with a solvent, e.g. acetonitrile, and the extract subjected to analysis by any of a variety of analytical methods known in the art, for example, gas, liquid, and high performance liquid chromatography particularly useful.
(§1) About 1.1 mg of ethacrynic acid (MW 303, melting point 122° C., oral dose 25 mg) was dip coated onto the stainless steel surface of a flashbar apparatus at a thickness of about 1.32 μm. (The flashbar is a cylinder 3.5 cm long and 1.3 cm in diameter consisting of a hollow tube of 0.005″ thick stainless steel.) Brass electrodes were connected to either end of the steel cylinder. The coated flashbar was secured in an electrical mount, which connected to two 1.0 Farad capacitors in parallel. An airway was provided by a 2 cm diameter glass sleeve placed around the flashbar. 15 L/min of room air were pulled by a house vacuum through the vaporization chamber and a filter housing, which contained a two-micron Teflon filter. A power supply charged the capacitors to 20.5 volts, at which point the circuit was closed with a switch and the stainless steel flashbar was resistively heated to about 400° C. within about 200 milliseconds. The drug aerosolized and flowed through the airway and into the filter. The Teflon filter was extracted with 5 mL of acetonitrile, and the sample was run through an HPLC for purity analysis.
as §1, with “1.01” for “1.1”, “1.21” for “1.32”
About 1.09 mg of bumetanide (MW 364, melting point 231° C., oral dose 0.5 mg) was dip coated onto the stainless steel surface of a flashbar apparatus at a thickness of about 1.3 μm. (The flashbar is a cylinder 3.5 cm long and 1.3 cm in diameter consisting of a hollow tube of 0.005″ thick stainless steel.) Brass electrodes were connected to either end of the steel cylinder. The coated flashbar was secured in an electrical mount, which connected to two 1.0 Farad capacitors in parallel. […]

[2] = format: in vivo, Beagle dog
From the text: This example is meant to illustrate one way in which toxicology and pharmacokinetic data may be investigated with respect to the bumetanide condensation aerosols described herein. Toxicology and pharmacokinetic data may be gathered by studying daily oropharyngeal inhalation of bumetanide condensation aerosols over a 14 day period using a beagle dog model.
Before treatment initiation, all animals are weighed and assigned to treatment groups using a randomization procedure. Animals are assigned into the following groups: bumetanide high dose, bumetanide mid dose, bumetanide low dose, and vehicle control at 3 animals per sex per dose. The dose levels for bumetanide are generally approximately 0.1 mg/kg for the low dose group, 0.5 mg/kg for the mid dose group, and 2 mg/kg for the high dose group. The dose levels can be refined through an initial dose ranging toxicology study.
Animals are treated with the test aerosols using an oropharyngeal face mask fitted with inlet and outlet tubes. During treatment, animals are placed in a restraint sling. A mask that allows the inhalation of test material to dogs is used. The test article is generated by vaporizing bumetanide by heating to roughly 400° C. The bumetanide is an approximately 1 micron thick film coating on a stainless steel foil, which was deposited on the foil by dip coating the foil into a solution of bumetanide dissolved in organic solvent.
The resulting aerosol formed by the condensation of the vaporized bumetanide is introduced into a mixing chamber via pre-dried compressed air. The mixing chamber is operated under slight positive pressure maintained by means of a gate valve located in the exhaust line. A vacuum pump is used to exhaust the inhalation chamber at the required flow rate and draw the contaminated air (excess aerosol and expired air) through a purifying system consisting of a 5 μm coarse filter before expelling the air from the building. The resulting atmosphere is carried to the dog mask via a delivery tube.
To ensure that the doses are correct, prior to the start of the treatment each day, atmosphere characterization of the test article aerosol is performed. Analysis of the aerosol particle size distribution for each bumetanide dose is conducted using a Cascade Impactor. Typical mass median aerodynamic diameter and geometric standard deviation measured during the study are 1.5 μm±2. Actual mask output concentrations of aerosol are measured during each exposure day from a sampling port from the animal breathing zone.
The achieved dose of active ingredient (mg/kg/day) for each treatment level is determined as follows: Achieved Dose of Active Ingredient=[RMV×Active Concentration×T×D]/BW
Where the achieved dose of the active ingredient is in mg/kg/day; the RMV (i.e., respiratory minute volume) is in L/min; the Active Concentration (i.e., chamber concentration of active ingredient determined by chemical analysis) is in mg/L; T (i.e., treatment time) is in minutes; D is the total aerosol deposition fraction, according to the particle size; and BW (i.e., mean body weight per sex per group from the regular body weight occasions during treatment) is in kg.
Dogs are treated with the bumetanide aerosol using the above approach to deliver the drug aerosol and compute the delivered dose. The exposure period required to deliver a dose is typically approximately 10 minutes. Plasma samples for pharmacokinetic analysis are collected on one or more treatment days. Samples are typically collected pre-dose, 2 minutes into dosing, and the end of dosing, 20 minutes post dose, 1 hour post dose, 3 hours post dose, 9 hours post dose, and 24 hours post dose. Samples are analyzed by an appropriate method such as LC/MS or LC/MS/MS to determine the pharmacokinetics of bumetanide absorption and elimination. […]

CCCCNc1cc(C(=O)O)cc(S(N)(=O)=O)c1Oc1ccccc1 [bumetanide]
aerosol purity (HPLC) ([1]; film about 1.3 μm on stainless steel): 98.44%
mass median aerodynamic diameter of the aerosol ([2]; Cascade Impactor, typical value during the study): 1.5 μm
food consumption ([2]; dog, in vivo): roughly normal
gross pathology at necropsy ([2]; dog, in vivo): No treatment related findings
histopathological examination of gross lesions ([2]; dog, in vivo): no treatment related findings
histopathological examination of larynx, trachea, mainstem bronchi, lungs ([2]; dog, in vivo): No treatment related abnormalities are observed
time of peak plasma levels ([2]; dog, in vivo): ≤ 10 min
duration of the increase in urination following treatment ([2]; dog, inhalation): approximately 4 hour
urination immediately following drug administration ([2]; dog, inhalation): an increase in urination is noted

Nc1nc(N)c2nc(-c3ccccc3)c(N)nc2n1 [triamterene]
aerosol purity (HPLC) ([1]; film about 0.97 μm, from 88% formic acid): 99.76%
aerosol purity (HPLC) ([1]; film about 1.11 μm, manually coated): 100%

C=C(CC)C(=O)c1ccc(OCC(=O)O)c(Cl)c1Cl [ethacrynic acid]
aerosol purity (HPLC) ([1]; film about 1.21 μm on stainless steel): 99.57%
aerosol purity (HPLC) ([1]; film about 1.32 μm on stainless steel): 99.83%

CC(=O)S[C@@H]1CC2=CC(=O)CC[C@]2(C)[C@H]2CC[C@@]3(C)[C@@H](CC[C@@]34CCC(=O)O4)[C@H]12 [spironolactone]
aerosol purity (HPLC) ([1]; film about 0.85 μm on stainless steel): 100%
aerosol purity (HPLC) ([1]; film about 1.01 μm on stainless steel): 100%

— patent US7981401B2, “Diuretic aerosols and methods of making and using them” (priority 2002, dated 2011)
